From article PMC9563435, “Comparison of Different Clinical Chemotherapeutical Agents’ Toxicity and Cell Response on Mesenchymal Stem Cells and Cancer Cells” (Cells, 2022)
“Also recorded” adds a separate entry of the source. Structures can show the parent of a compound that is named as a salt. Values belong to the molecule of their own block, whether it stands above or below them.

Experiments:
[1] = system: 6 MSCs and 3 cancer cell lines; experiment: Cytotoxicity / cell viability assay (PrestoBlue), panel of MSCs and cancer cell lines; type: cell-based, human; conditions: for drug sensitivity of MSCs compared with cancer cells (in words): IC50 comparison
Protocol: (§1) Cells were seeded in a 96-well tissue culture plate in 100 µL of medium. Ad-MSC-GFP 1, iAd-MSC-GFP 1, Ad-MSC-GFP 2, Ad-MSC-GFP 3, BM-MSC, and HFF were seeded at 5 × 10^3/100 µL/well density and A431-mCh, MES-SA-mCh, and MCF-7-GFP at 4 × 10^3 cells/100 µL/well concentration in DMEM-F12 media. Different initial cell numbers were used due to different proliferation rates of different cell types. Cells were allowed to attach overnight at 37 °C and the day after were treated with the drugs using the indicated concentrations in 100 µL. Cell viability was measured by using PrestoBlue™ Cell Viability Reagent (A13232, Invitrogen, Waltham, MA, USA). To address metabolic differences between cancer cells and MSCs, the assay was optimized for each cell line, cells were incubated with 5 or 12.5% PrestoBlue™ Cell Viability Reagent diluted in PBS at 37 °C/5% CO2 for 1–1.5 h 5 days after the treatment. The fluorescence signal was measured by an EnSpire (Perkin Elmer, Waltham, MA, USA) fluorometer at 555 nm (excitation)/585 nm (emission) wavelength.
After the incubation period, the relative fluorescence data was measured. The data was normalized with the fluorescence of blank samples (cell culture media). A sigmoidal dose–response curve was fitted to the normalized measurement data and the logarithm of the concentration using the least square method. An inhibitory concentration of 50% (IC50 and log10) was interpolated from the fitted graph. […] In these cases, IC50 was calculated from the line connecting the measurement points. For repeated measurements, average and standard deviation was calculated based on the logarithm of the IC50 values.
To compare the mean IC50 values of six mesenchymal stem cell lines (Group-1) and three cancer cell lines (Group-2), first an F-test was performed to check equal variances between the groups, then two-sample unpaired t-tests were performed to calculate significance using Microsoft® Excel® 2016 (16.0.4266.1001).

Ad-MSC 3 cells [2] = experiment: Apoptosis assay (Annexin V / TO-PRO-3 flow cytometry), Ad-MSC 3; type: cell-based, human; conditions: for apoptosis induction in MSCs (in words): several concentrations, data not shown; for type of cell death in MSCs (in words): high concentrations: doxorubicin 1 µM, nutlin-3 50 µM
Protocol: Apoptosis detection was based on the Annexin-V molecule binding to phosphatidylserine membrane molecules. Two cell lines were used to study apoptosis: Ad-MSC 3 cells were plated in a 5 × 10^4 cells/well concentration, while 4 × 10^4/well A431-mCh were seeded into each well in a 12-well tissue culture plate. […] At day 5, cells were trypsinized and centrifuged, while the supernatant was also collected and combined with the detached cells to include all already dead cells. Cells were washed twice with 500 µL of 1% BSA-PBS (bovine serum albumin dissolved in PBS, A8022, Sigma-Aldrich, St. Louis, MO, USA) solution and centrifuged at 400× G for 4 min. Cells were resuspended in 100 µL of 1× Annexin Binding Buffer (422201, Biolegend, San Diego, CA, USA), and 3 µL of Annexin V-Pacific Blue (A35122, Biolegend, San Diego, CA, USA) and 1 µL of TO-PRO-3 (R37170, Invitrogen, Waltham, MA, USA) were added to each sample. After 15 min of incubation, labeled and non-labeled samples were diluted 5-fold with 1× Annexin Binding Buffer and analyzed by Attune™ NxT flow cytometer.

Ad-MSC 3 cells [3] = experiment: ROS induction (DCFH-DA), Ad-MSC 3; type: cell-based, human; conditions: 1 h
Protocol: (§2) Ad-MSC 3 and A431 cells were seeded in a 96-well tissue culture plate and incubated for 24 h as described above. Cells were washed twice with HBSS and incubated in 100 µL of DCFH-DA dye (R252-10, Dojindo) according to the manufacturer’s instructions. Cells were incubated for 30 min at 37 °C and washed twice with HBSS. […] Supernatant was removed, and the cells were washed with HBSS before imaging with the JuLI^TM Stage Cell History Recorder (NanoEnTek).

A431 cells [4] = experiment: Apoptosis assay (Annexin V / TO-PRO-3 flow cytometry), A431; conditions: 120 h
Ad-MSC-GFP 3 cells [5] = experiment: γ-H2AX staining of DNA double-stranded breaks, Ad-MSC-GFP 3; type: cell-based, human; conditions: 120 h; IC50 concentrations of A431 (2 µM cisplatin, 0.1 µM doxorubicin, 30 µM nutlin-3)
Protocol: (§3) Ad-MSC-GFP 3 cells were seeded into glass-bottomed chamber slides (ibidi, Germany, Grafelfing, Germany) at 1 × 10^4/well and A431-mCh at 1.6 × 10^4/well density. […] Cells in all chambers were fixed with 4% PFA for 15 min and washed twice with PBS. Blocking solution (0.5% BSA-PBS, 0.1% TritonX-100, 5% goat serum, and 1% fish gelatin) was used for 1 h. γ-H2A.X primary antibody (MA1-2022, Invitrogen, United States) was diluted in blocking solution at 1:500 concentration and incubated overnight at 4 °C. Afterwards, the cells were washed with PBS twice and goat anti-mouse A633 secondary antibody (A21052, abcam, Cambridge, UK) was diluted at 1:250 concentration in blocking solution. Nuclei was stained with a Hoechst-33342 (23491-52-3, Dojindo, Kumamoto, Japan) at 1:1000 concentration.
(§4) To quantify DNA damage based on immunofluorescence against γ-H2AX, a semi-automated image analysis pipeline was set up using CellProfiler v4.1.3 [10]. First, images showing DAPI-stained nuclei were pre-processed by intensity normalization and Gaussian filtering (ϭ = 20 px) to suppress noise and remove artifacts caused by debris. Nuclei candidates were identified by threshold-based segmentation; false candidates were removed from the analysis manually. Using the remaining nuclei regions as masks, pixel intensities were measured on the γ-H2AX channel, thus, excluding non-nuclei signals.

Ad-MSC-GFP 3 cells [6] = experiment: Live cell imaging, confluency, Ad-MSC-GFP 3; type: cell-based, human
Protocol: (§5) JuLI™ Stage Cell History Recorder was used to monitor a five-day cytotoxicity assay on Ad-MSC-GFP 3 and A431-mCh cell lines. […] Images were taken every 105 min for 120 h at 10× objective magnification. Live cell microscopy studies were evaluated using the “Growth curve” function of the JuLI STAT image analysis software (v2.0.1.0).

A431 cells [7] = experiment: ROS induction (DCFH-DA), A431; type: cell-based, human; conditions: 1 h
Protocol: as §2

Ad-MSC 3 cells [8] = experiment: Cell proliferation (CytoTell) and light microscopy after treatment, Ad-MSC 3; type: cell-based, human; conditions: 0.1 µM
Protocol: (§6) Cell division was analyzed by the fluorescent CytoTell Green dye (AAT Bioquest, Sunnyvale, CA, USA) according to the manufacturer’s guidelines. Briefly, 3 × 10^5 cells were centrifuged and stained with 2 µL of CytoTell dye diluted in 1 mL of serum-free DMEM and incubated at 37 °C for 30 min. After centrifugation, half of the cells (1.5 × 10^5) were plated into T25 cell culture flasks in 5 mL of media and analyzed at day 5. Day 1 samples were co-stained with Zombie Violet dye (423113, Biolegend) to exclude dead cells and analyzed by Attune™ NxT flow cytometry. Brightfield images were taken with the Olympus IX51 microscope. The scale bar is the same in every image.

A431-mCh cells [9] = experiment: Cytotoxicity / cell viability assay (PrestoBlue) on A431; type: cell-based, human
Protocol: as §1
(§7) After the incubation period, the relative fluorescence data was measured. The data was normalized with the fluorescence of blank samples (cell culture media). […] In these cases, IC50 was calculated from the line connecting the measurement points. For repeated measurements, average and standard deviation was calculated based on the logarithm of the IC50 values.

A431-mCh cells [10] = experiment: γ-H2AX staining of DNA double-stranded breaks, A431-mCh; type: cell-based, human; conditions: 120 h; IC50 concentrations of A431 (2 µM cisplatin, 0.1 µM doxorubicin, 30 µM nutlin-3)
Protocol: as §3, §4

A431 cells [11] = experiment: Cell proliferation (CytoTell) and light microscopy after treatment, A431; type: cell-based, human; conditions: 0.1 µM
Protocol: as §6

A431-mCh cells [12] = experiment: Live cell imaging, confluency, A431-mCh; type: cell-based, human; conditions: 120 h
Protocol: as §5

Ad-MSC-GFP 3 cells [13] = experiment: Cytotoxicity / cell viability assay (PrestoBlue) on Ad-MSC-GFP 3; type: cell-based, human; conditions: Homo sapiens, 120 h; Ad-MSC-GFP 3 / Ad-MSC 3, 5 days
Protocol: as §1, §7

[14] = different concentrations incl. higher

SMILES: CCc1c2c(nc3ccc(OC(=O)N4CCC(N5CCCCC5)CC4)cc13)-c1cc3c(c(=O)n1C2)COC(=O)[C@]3(O)CC [irinotecan, irinotecan hydrochloride]
drug sensitivity of MSCs compared with cancer cells (in words) ([1]; 5 days treatment): required significantly higher concentrations to kill MSCs than cancer cells

SMILES: OO [H2O2]
apoptosis induction in MSCs (in words) (Ad-MSC 3 cells [2]): not able to induce apoptosis

SMILES: Cn1nnc2c(C(N)=O)ncn2c1=O [temozolomide]
IC50 ([1]; Homo sapiens, all cell lines of the screening, read-out: toxic concentration in the IC50 screening (not toxic even at)): > 1000 µM

SMILES: COc1cccc2c1C(=O)c1c(O)c3c(c(O)c1C2=O)C[C@@](O)(C(=O)CO)C[C@@H]3O[C@H]1C[C@H](N)[C@H](O)[C@H](C)O1 [doxorubicin, doxorubicin hydrochloride]
ROS induction (Ad-MSC 3 cells [3]; [14]): did not induce ROS | apoptosis (in words) (A431 cells [4]; 0.1 µM): apoptosis in almost all A431 cells | apoptosis (in words) (Ad-MSC 3 cells [2]; 0.1 µM, 120 h): apoptosis was not detected | apoptosis / cell death (in words) (Ad-MSC 3 cells [2]; concentration increased 10-fold (1 µM), 120 h): only late necrosis was found | type of cell death in MSCs (in words) (Ad-MSC 3 cells [2]): necrotic cell death | drug sensitivity of MSCs compared with cancer cells (in words) ([1]; 5 days treatment): equally toxic to MSCs and cancer cells | DNA double-stranded breaks (γ-H2AX) (Ad-MSC-GFP 3 cells [5]): no DNA break was detected | decrease of cultures in live cell imaging (Ad-MSC-GFP 3 cells [6]; 120 h of treatment): no significant decrease | ROS induction (A431 cells [7]; [14]): did not induce ROS | cell number (light microscopy) (Ad-MSC 3 cells [8]): reduced cell number | proliferation (CytoTell) (Ad-MSC 3 cells [8]; five-day treatment): decreased proliferation | IC50 (A431-mCh cells [9]; Homo sapiens, A-431, 120 h, A431, 5 days): 0.1 µM | DNA damage (γ-H2AX) (A431-mCh cells [10]): massive DNA damage | cell killing (light microscopy) (A431 cells [11]): killed most of the cancer cells | proliferation (CytoTell) (A431 cells [11]; five-day treatment): decreased proliferation | number of viable colonies in live cell imaging (A431-mCh cells [12]; IC50 of A431-mCh and 10-fold higher concentration): significantly reduced the number of viable colonies | growth kinetics in live cell imaging (A431-mCh cells [12]; concentration 10-fold lower than A431-mCh IC50): did not alter growth kinetics | IC50 (Ad-MSC-GFP 3 cells [13]): 0.1 µM

SMILES: CN(Cc1cnc2nc(N)nc(N)c2n1)c1ccc(C(=O)N[C@@H](CCC(=O)O)C(=O)O)cc1 [methotrexate]
drug sensitivity of MSCs compared with cancer cells (in words) ([1]; 5 days treatment): only toxic to A431-mCherry cells | sensitivity of A431 cells (in words) (A431-mCh cells [9]; compared with the other cell lines): extreme sensitivity; also recorded: hypersensitive

concentration at which significant drops in confluency were seen, as multiple of Ad-MSC-GFP 3 IC50 (Ad-MSC-GFP 3 cells [6]; 120 h live cell imaging): 3 fold
SMILES: COc1ccc(C2=N[C@@H](c3ccc(Cl)cc3)[C@@H](c3ccc(Cl)cc3)N2C(=O)N2CCNC(=O)C2)c(OC(C)C)c1 [nutlin-3]
ROS induction (Ad-MSC 3 cells [3]; 30 µM): considerable amount of ROS | apoptosis (in words) (A431 cells [4]; 30 µM): modest apoptotic response | apoptosis (in words) (Ad-MSC 3 cells [2]; 30 µM, 120 h): only a slight increase in the number of apoptotic MSCs | type of cell death in MSCs (in words) (Ad-MSC 3 cells [2]): necrotic cell death | DNA double-stranded breaks (γ-H2AX) (Ad-MSC-GFP 3 cells [5]): no DNA break was detected | ROS induction (A431 cells [7]; 30 µM): considerable amount of ROS | DNA damage (γ-H2AX) (A431-mCh cells [10]): massive DNA damage | effect on cultures in live cell imaging (A431-mCh cells [12]; either concentration, p53 mutant): no effect

SMILES: O=C1c2c(O)ccc(O)c2C(=O)c2c(NCCNCCO)ccc(NCCNCCO)c21 [mitoxantrone]
apoptosis induction in MSCs (in words) (Ad-MSC 3 cells [2]): not able to induce apoptosis | drug sensitivity of MSCs compared with cancer cells (in words) ([1]; 5 days treatment): required significantly higher concentrations to kill MSCs than cancer cells

SMILES: c1ccc(CN(CCN(Cc2ccccn2)Cc2ccccn2)Cc2ccccn2)nc1 [TPEN]
drug sensitivity of MSCs compared with cancer cells (in words) ([1]; 5 days treatment): equally toxic to both MSCs and cancer cells

SMILES: CN[C@@H]1C[C@H]2O[C@@](C)([C@@H]1OC)n1c3ccccc3c3c4c(c5c6ccccc6n2c5c31)C(=O)NC4 [staurosporine]
apoptosis induction in MSCs (in words) (Ad-MSC 3 cells [2]): not able to induce apoptosis

SMILES: [Cl][Co][Cl] [cobalt chloride]
apoptosis induction in MSCs (in words) (Ad-MSC 3 cells [2]): not able to induce apoptosis

SMILES: CC[C@]1(O)C[C@@H]2CN(CCc3c([nH]c4ccccc34)[C@@](C(=O)OC)(c3cc4c(cc3OC)N(C)[C@H]3[C@@](O)(C(=O)OC)[C@H](OC(C)=O)[C@]5(CC)C=CCN6CC[C@]43[C@@H]65)C2)C1 [vinblastine]
drug sensitivity of MSCs compared with cancer cells (in words) ([1]; 5 days treatment): required significantly higher concentrations to kill MSCs than cancer cells | IC50 values in MSCs relative to cancer cells ([1]; 5 days treatment, MSCs higher than cancer cells): 1000 fold
